Results taken from patent US11383003B2, “Water soluble farnesol analogs and their use” (Kimberly-Clark Worldwide, Inc., priority 2012, dated 2022).

How the values were obtained:
C. albicans SC5314 [1] = test: Effect of quorum sensing molecules on lag phase/growth of C. albicans in YPD broth; type: cell-based, Candida albicans; conditions: 100 μM, 37° C., 6 h
C. albicans SC5314 [2] = test: Germ tube formation (GTF %) in vitro screening, GlcNAc-triggered differentiation assay; type: cell-based, Candida albicans
Description: Based on the results in FIG. 3, single cell suspensions of SC5314 was prepared as follows. Stock culture of C. albicans SC5314 was streaked onto YPD agar (YPDA) and incubated at 30° C. overnight. Single colonies were subcultured in YPD broth (YPDB) and incubated 30° C., 200 rpm overnight. Overnight culture in YPDB was subcultured in YPD broth again and incubated 30° C., 200 rpm 48 h. Cells were collected by centrifugation (4000 g 10 min) at 4° C., washed three times with sterile water, and then resuspended in sterile water a final concentration of 10^9 colony-forming unit/ml (cfu/ml). The suspension were stored at 4° C. at least 1 d, then subcultured into YPDB to a final concentration of 10^6 cfu/ml. After 48 h incubation, cell suspension was examined under the microscope for single cell percentage. When the single cell percentage exceeded 80%, cells were collected and washed three times with water, then resuspended in water to a final concentration of 10^9 cfu/ml, and stored at 4° C. for no more than a month.
Two approaches were taken to determine the percentage of cells with germ tubes formed (GTF %). One way was to count the total cells at the start of incubation, and count the ungerminated cells after incubation, then calculate the GTF % as (1—ungerminated cells/total cells at 0 h)*100. Another way was to store the samples at 15° C. for 20 h after incubation, then count the germinated cells and total cells after disaggregation, then calculated the GTF % as (germinated cells/total cells after storage)*100. […] Therefore, for practical purposes, the GTF % was determined by the first method, that is, GTF %=(1—ungerminated cells/total cells at 0 h)*100, for the in vitro screening discussed herein.
A screening medium, containing 11 mM imidazole buffer, 3 mM MgSO4, and 2.6 mM N-acetyl-D-glucosamine (GlcNAc) has been used to study the effect of farnesol analogs on the germ tube formation of C. albicans. Here, the germ tube formation of C. albicans in modified screening media was assessed with various concentrations of imidazole buffer (10 mM, 30 mM and 50 mM) and MgSO4 (0.5 mM, 1.5 mM and 3 mM). […] It took 2 h to 3 h for the GTF % to reach above 80%. For practical purposes, the screening medium, containing 11 mM imidazole buffer, 0.5 mM MgSO4, and 2.6 mM N-acetyl-D-glucosamine (GlcNAc) was adopted for in vitro screening the quorum sensing inhibitory effect of farnesol compounds.
The in vitro screening assay was based on the N-acetylglucosamine (GlcNAc)-triggered differentiation assay (Hornby et al., “Quorum sensing in the dimorphic fungus Candida albicans is mediated by farnesol;” Applied and Environmental Microbiology 67:2982-2992; 2001), which included 0.56 ml of 0.1 M imidazole buffer (pH 6.5), 0.15 ml of 0.1 M MgSO4, 0.13 ml of 0.1 M GlcNAc, and 4.16 ml of sterilized water. Bioassays of quorum sensing candidates were conducted by the addition of the chemical, as a solution in 100% methanol, to the bioassay media; the final concentration of methanol was no greater than 1%.

[3] = test system: C. elegans glp4; sek1 infected with C. albicans SC5314; test: Death rate of C. elegans glp4; sek1 infected with C. albicans SC5314, 96 well plates; type: in vivo, Caenorhabditis elegans
Description: Caenorhabditis elegans glp4; sek1 was used as the model for […]. Breger et al. (Breger, J.; Fuchs, B. B.; Aperis, G.; Moy, T. I., Ausubel, F. M., Mylonakis, E.; “Antifungal chemical compounds identified using a C. elegans pathogenicity assay.” PLoS Pathogens 3: 168-178; 2007) reported that the glp-4 mutation rendered the strain incapable of producing progeny at 25° C., and the sek-1 mutation enhanced the sensitivity of the strain to various pathogens, thereby decreasing the time for screening assays. It was observed that no progenies was produced by the Caenorhabditis elegans glp4; sek1 strain after 3 d incubation at 25° C.
The synchronization of C. elegans was achieved by collecting the eggs and arresting the larvae at L1 stage. The commonly used bleach treatment was able to release the eggs from the adult worms. However, it was observed that the released eggs were not always able to hatch after treated with sodium hypochlorite (0.2, 0.3, 0.4, 0.5, 0.7 or 1%) for 3-5 min. A modified egg laying method was developed to synchronize worms to L1 stage. In brief, stock cultures of C. elegans glp4; sek1, maintained on Nematode Growth Media plates (NGM plates), were subcultured onto NGM plates with OP 50 and incubated at 15° C. for 6-9 days. Then a chunk (1 cm^2) of agar with gravid adults was subcultured again onto NGM plates with OP50 and incubated at 15° C. After incubation of 3-7 days, the worms were gently washed off with 3 ml of M 9 buffer on the rotating platform (100 rpm). The plate was tilted on its lid to allow the liquid and worms drain to one side of the plate. The liquid and worms were aspirated off. The plate was washed again with M9 buffer three more times to remove OP50 as much as possible. After washing, the plate was incubated at 25° C. overnight to let the eggs hatch overnight. Since there was no OP50, the larvae were arrested at the L1 stage. The live C. elegans glp4; sek1 was quite curvy; whereas the dead C. elegans glp4; sek1 tended to be straight, and in most cases the dead worms with the hyphae of C. albicans pieced through the body. The curvy shape and movement after shaking were used as the criteria for live.
The In vitro screening assay, based on the method of Tampakakis et al (Tampakakis, E.; Okoli, I.; Mylonakis, E.; “A C. elegans-based, whole animal, in vivo screen for the identification of antifungal compounds.” Nature Protocols 3:1925-1931; 2008), is described as follows:
L1 worms, which were prepared by the modified egg-laying method, were collected by centrifugation at 675 g for 30 s at room temperature, and the supernatant was removed. Worms were resuspended in M 9 buffer and inoculated on NGM agar plates with OP50, ˜1000 worms per plate. After 2-3 days incubation at 25° C., the worms were washed off with M 9 buffer for the […] assay.
The control were worms fed on OP50.

C. elegans glp4; sek1 = test: Toxicity: death rate of C. elegans glp4; sek1 fed on E. coli OP50; conditions: for Death rate (%): 2 mM, worms fed on E. coli OP50, 25° C.; for toxicity to C. elegans fed on E. coli OP50 (in words): in vivo
Description: The toxicity of the selected compounds/products were tested using the C. elegans glp4; sek1 fed on E. coli OP50 (Table 5).
Stock cultures of C. albicans SC 5314 was subcultured into 3 ml of YPD broth and incubated at 30° C. Then the overnight culture in broth was spread onto YPD agar, and incubated at 30° C. The 24 h old lawn of SC5314 was used to feed worms for 2 h at 25° C. The control were worms fed on OP50.
The worms were washed off the YPD plates and washed twice with M9 buffer. The worms were resuspended in screening media, M9 buffer with 0.3% Tween 80. The worm suspension (50 μl) was dispensed into the wells of 96-well plates, 20-30 worms/well. Aliquots (50 μl) of compounds in screening media were added to wells, 5 wells each compound. The 96 well plates were incubated at 25° C. for up to 5 days. Live and dead worms were counted during incubation, and the death rates of worms were calculated.

[4] = cited from earlier work
[5] = 0.4 mM to 3 mM (the tested four concentrations)
[6] = 0.4 mM, 4 days, 25° C., two replicates
[7] = 0.4 mM, 5 days, 25° C., two replicates
[8] = 1.0 mM, 4 days, 25° C., two replicates
[9] = 1.0 mM, 5 days, 25° C., two replicates
[10] = 2.0 mM, 4 days, 25° C., two replicates (* three)
[11] = 2.0 mM, 5 days, 25° C., two replicates (* three)
[12] = 3.0 mM, 4 days, 25° C., two replicates
[13] = 3.0 mM, 5 days, 25° C., two replicates

SMILES | effect on the growth of C. albicans SC5314 (in words) (C. albicans SC5314 [1]) | GTF % (mean ± SEM, n = 2) (C. albicans SC5314 [2]; 100 μM, * one replicate) [%] | GTF % (mean ± SEM, n = 2) (C. albicans SC5314 [2]; 200 μM) [%] | Death rate (%) (C. elegans glp4; sek1) | toxicity to C. elegans fed on E. coli OP50 (in words) (C. elegans glp4; sek1) | effect on death rate of infected C. elegans (in words) [3, 5] | % change in the death rate compared to the control [3, 6] [%] | % change in the death rate compared to the control [3, 7] [%] | % change in the death rate compared to the control [3, 8] [%] | % change in the death rate compared to the control [3, 9] [%] | % change in the death rate compared to the control [3, 10] [%] | % change in the death rate compared to the control [3, 11] [%] | % change in the death rate compared to the control [3, 12] [%] | % change in the death rate compared to the control [3, 13] [%] | other results
OCCc1ccc(O)cc1 [tyrosol] | little effect on the growth |  |  |  |  |  |  |  |  |  |  |  |  |  | 
CC(C)=CCC/C(C)=C/CC/C(C)=C/CO [E,E-farnesol, reference compound] | little effect on the growth | 44.0 ± 3.1 | 18.4 ± 2.9 | 7 | slightly higher than the control |  |  |  |  |  |  |  |  |  | % change in the death rate compared to the control ([3]; 0.4 mM, day 1, initial screening): −4%; % change in the death rate compared to the control ([3]; 0.4 mM, day 4, initial screening): −16%; % change in the death rate compared to the control ([3]; 0.4 mM, day 5, initial screening): −19%; effect on death rate of infected C. elegans (in words) ([3]; 0.4 mM, initial screening): reduced the death rate slightly; % change in the death rate compared to the control ([3]; 1 mM, day 1, initial screening): −12%; % change in the death rate compared to the control ([3]; 1 mM, day 4, initial screening): 14%; % change in the death rate compared to the control ([3]; 1 mM, day 5, initial screening): 10%; % change in the death rate compared to the control ([3]; 2 mM, day 1, initial screening): −8%; % change in the death rate compared to the control ([3]; 2 mM, day 4, initial screening): 19%; % change in the death rate compared to the control ([3]; 2 mM, day 5, initial screening): 8%; % change in the death rate compared to the control ([3]; 3 mM, day 1, initial screening): −21%; % change in the death rate compared to the control ([3]; 3 mM, day 4, initial screening): 23%; % change in the death rate compared to the control ([3]; 3 mM, day 5, initial screening): 12%; effect on death rate of infected C. elegans (in words) ([3]; higher concentration (above 0.4 mM), initial screening): resulted in higher death rate of the worm; solubility in water (in words) [4]: insoluble in water
CC(C)=CCC/C(C)=C/CC/C(C)=C/COCCCCO [#5 synthesized analog] |  | 73.8 ± 4.8 | 53.6 ± 3.0 | 4 |  | did not have significant effect on the death of the worms | −3 ± 6 | −6 ± 3 | 2 ± 3 | 9 ± 1 | −8 ± 1 | 2 ± 2 | −4 ± 4 | 4 ± 1 | 
CC(C)=CCC/C(C)=C/CC/C(C)=C/COC(=O)CCC(=O)OCCO [#4 synthesized analog] |  | 59.2 ± 4.8 | 31.1 ± 8.2 | 2 |  | did not have significant effect on the death of the worms | 8 ± 8 | 7 ± 1 | −3 ± 3 | −1 ± 4 | 4 ± 8 | 8 ± 11 | 7 ± 4 | 10 ± 5 | 
CC(=O)OCC=C(C)CCC=C(C)CCC=C(C)C [farnesyl acetate, reference compound] |  | 51.9 ± 2.1 | 36.8 ± 0.8 | 12 | toxic to the worm | increased the death rate of the worm significantly | 10 ± 6 | 4 ± 3 | 27 ± 7 | 15 ± 7 | 21 ± 5 | 9 ± 2 | 24 ± 9 | 7 ± 10 | 
